Measured values: US20240238417A1, “METHODS OF PRODUCING TUMOR VACCINES AND USES THEREOF” (priority 2021, published 2024)

Assays:
LLC1 cells [1] = assay: Annexin V-Propidium Iodide apoptosis-necrosis assay of LLC1 cells; assay type: cell-based; conditions: 20,000 ppm or 50,000 ppm gNO for 3 minutes, overnight incubation
Procedure: (§1) Immediately after gas exposure, cell culture medium was added, and the cells were incubated at a 37° C. and 5% CO2 incubator over-night. To test cell viability, XTT assay and Annexin V-Propidium Iodide assays were performed, according to known protocols.
In an additional set of experiments, the plates were exposed to the gas (at 20,000 ppm or 50,000 ppm) by filling the chamber with gNO for 3 minutes. After exposure, the plates were placed in a 5% CO2, 37° C. incubator for an overnight incubation and the viability of the cells was tested via Annexin V—Propidium Iodide apoptosis-necrosis assay.

LLC1 cells [2] = assay: XTT viability of LLC1 cells after gas exposure in chamber; assay type: cell-based; conditions: 10,000 ppm-25,000 ppm gNO for 3-15 minutes
Procedure: (§2) In vitro systems: One system involves a direct exposure of cancer cells to gNO in 96-well plate. Gaseous NO at 150 ppm-50,000 ppm was delivered at 0.3 LPM for 10 seconds—3 minutes. In another system, cancer cells were exposed to gNO in a box made of acrylic glass. Gaseous NO at 10,000-50,000 ppm was delivered at 0.9 LPM for 10 seconds—15 minutes.
(§3) The exposure of the cancer cells to gNO was done after removing the cell culture medium.
as §1
The effect of continuous gaseous nitric oxide (gNO) at 10,000 ppm, 15,000 ppm, 20,000 ppm, or 25,000 ppm, compared to air (control), on the survival of LLC1 cancer cell line was tested. LLC1 cells were prepared in DMEM medium and suspended in 96-well plates. The plates were placed inside an approx. 2 liter exposure chamber. The plates were exposed to the gas by filling the chamber with gNO for 10 seconds, or 1, 3, 9 or 15 minutes. After exposure, the plates were placed in a 5% CO2, 37° C. incubator for an overnight incubation and the viability of the cells was tested by XTT assay.

LLC1 challenge tumor = assay: Challenge assay in LLC1 tumor-bearing mice; assay type: in vivo; conditions: 50,000 ppm NO intra-tumorally for 10 minutes; 9 days post challenge tumor inoculation
Procedure: (§4) Challenge tumor inoculation: Up to 21 days after gas treatment was applied to the primary tumor, the appropriate cancer cell suspensions were prepared as described herein and inoculation of cells was repeated on the contralateral flank of the mice. Administration was performed as soon as possible following cell suspension preparation and after manual shaking prior to withdrawal of the cell suspension.
(§5) The percentage of challenge tumor take was monitored 2-3 times a week by taking a look at the inoculated site and touching this area to look for small tumors that are not yet visible. Naïve mice inoculated with tumor cells for the first time served as an internal control.
gNO local administration was tested in a Challenge assay, as depicted in FIG. 15A, in order to evaluate whether treating the primary tumor by gNO based ablation stimulates an anti-tumor immune response that results in rejection of a secondary tumor inoculation. A secondary, “challenge”, tumor cells inoculation also serves as a metastasis model.
LLC1 tumor-bearing mice were treated with 50,000 ppm NO administered intra-tumorally by a 23G hypodermic needle for 10 minutes. Up to 2 weeks post the first gas treatment all gas-treated mice were re-inoculated with 2.5×10^5 LLC1 cells suspended in 100 μL HBSS into the left flank. Naïve mice inoculated with 5×10^5 CT-26 cells served as an internal control for cells' quality.

CT26 tumor = assay: Combined gNO and surgery, CT26 tumor recurrence; assay type: in vivo, mice; conditions: then excision
Procedure: The following in vivo experimental procedures were carried out in accordance with the protocol approved by the Ethics Committee on the Use and Care of Animals. Institutional Animal Care and Use Committee (IACUC): IL-20-3-149.
CT26 tumor-bearing mice were treated with 20,000 ppm and 50,000 ppm gNO intra-tumorally for 5 minutes. Up to fourteen days post gNO treatment, all tumors were excised, and the recurrence rate was monitored for 89 days post-excision. Tumor recurrence was detected 17 days post treatment.

4T1 challenge tumor = assay: Challenge assay in 4T1 tumor-bearing mice; assay type: in vivo; conditions: 50,000 ppm gNO intra-tumorally for 10 minutes
Procedure: as §4, §5
In another challenge assay, 4T1 tumor-bearing mice were treated with 50,000 ppm gNO administered intra-tumorally by a 23G hypodermic needle for 10 minutes, and the effect of a local treatment with gNO on the primary tumor as compared to nitrogen was tested, as depicted in FIG. 16A. Fourteen days post gNO treatment, mice were re-inoculated with 10×10^5 4T1 cells subcutaneously (s.c.) (challenge assay). The percentage of tumor take was monitored by caliper measurements 2-3 times a week for 10 days. Naïve mice, inoculated with 4T1 for the first time, served as the control group. […]

PC-3 cells = assay: XTT viability of PC-3 cells after direct gas exposure in 96-well plate; assay type: cell-based
Procedure: as §2, §3, §1
PC-3 cells were prepared in RPMI medium and suspended in four 96-well plates. The wells were exposed to the gas by a tubing that was directed at each well for 10, 60 or 180 seconds. The diameter of the gas tubing used was about 25% of the diameter of each well. Three wells were used for each gas and exposure time. The plates were placed in a 5% CO2, 37° C. incubator for 15-18 hours and the viability of the cells was tested by XTT assay.

[N]=O [gNO, nitric oxide]
LLC1 cells at late apoptosis (LLC1 cells [1]): 80%-90%
viability of LLC1 cells (LLC1 cells [2]): less than 5%
development of a secondary (challenge) LLC1 tumor (LLC1 challenge tumor): none of the gas-treated mice developed a secondary tumor
tumor recurrence (CT26 tumor; 20,000 ppm gNO intra-tumorally 5 minutes, 17 days post-surgery): about 18%
tumor recurrence (CT26 tumor; 50,000 ppm gNO intra-tumorally 5 minutes, 17 days post surgery): 0%
development of a secondary (challenge) 4T1 tumor (4T1 challenge tumor; 5 days post challenge tumor inoculation): have not developed a secondary tumor
challenge tumor take compared to non-treated and nitrogen-treated mice (4T1 challenge tumor; 10 days post re-inoculation): a delay in the challenge tumor take was achieved
viability of PC-3 cells (PC-3 cells; 4,000 ppm and 10,000 ppm gNO for 180 seconds): 43-48%
viability at 4000 ppm (PC-3 cells; Homo sapiens, PC-3, 1 min, 4,000 ppm, 10,000 ppm and 50,000 ppm gNO for 1 minute): 44 to 55%
viability at 4000 ppm (PC-3 cells; Homo sapiens, PC-3, 4,000 ppm, 10,000 ppm and 50,000 ppm gNO for 10 seconds): 56 to 72%
viability at 50000 ppm (PC-3 cells; Homo sapiens, PC-3, 50,000 ppm gNO for 180 seconds): ~17%
